*: point of attachment. 5TAMRA = CN(C)c1ccc2c(c1)Oc1cc(N(C)C)ccc1C21OC(=O)c2cc(C(=O)*)ccc21
Assays:
Panc1 cells [1] = conditions: cited from earlier work
Source text: (§1) Several reports link USP11 to cell cycle progression and proliferation, although the detailed mechanisms are only partially understood. For example, (i) cell growth assays in MCF-7 and MDA-MB-231 cells show an increase in cell numbers upon USP11 overexpression, whereas USP11 knockdown leads to growth inhibition ([48]); (ii) USP11 itself is under cell cycle control and turns over rapidly in G1 cells, especially upon DNA damage induction, whereas expression of USP11 in S phase is high and insensitive to DNA damage ([12]). Knockdown of USP11 results in the activation of DNA damage-response pathwa ...

USP11 = conditions: cited from earlier work
Source text: as §1

NIH3T3 cells [2] = assay: Cell uptake (flow cytometry), NIH3T3; assay type: cell-based; conditions: compared with Panc1, flow cytometry
Description: (§2) Cells treated with GET-FYLIR or GET-Scrambled were analyzed on an Astrios cell sorter using a 488-nm […] laser (40,000 cells; gated on live cells by forward/side scatter). Gmean was used as the average cell intensity. All data sets were combined for the statistical analysis. A Sidak's multiple comparisons test was applied. N refers to the number of biological replicates.

U87 cells = assay: Cell viability (Presto Blue assay), U87; assay type: cell-based, human; conditions: 24 h, n = 3
Description: (§3) Cells were plated in 96-well plates (2.5 × 10^4 cells/well) and treated with GET-FYLIR (0–50 μM) for 24 h. Cells were also treated with GET-Scrambled as a control. After treatment, cells were washed with PBS and then incubated for 15 min at 37 °C with a 100-μl Presto Blue solution (10% Presto Blue, Invitrogen in Hanks' balanced salt solution, Sigma). Change in the fluorescence was measured using a plate reader with the excitation/emission wavelengths set at 560/590 nm (Infinite® 200 PRO, TECAN), with untreated cells used as a control. All data sets were combined for the statistical analysis. A Sidak's multiple comparisons test was applied. N refers to the number of biological replicates.

Panc1 cells [3] = assay: Cell cycle analysis (propidium iodide, flow cytometry), Panc1; assay type: cell-based, human; conditions: Panc1, 20 μM, 24 h, p < 0.0001, n = 7
Description: (§4) Cells were plated in 24-well plates (1 × 10^5 cells/well) and treated with GET-FYLIR (20 μM) for 24 h. The cells were treated with trypsin, detached from the plate, and centrifuged at 200 × g for 5 min. The supernatant was aspirated, and the cells were resuspended in PBS. The cells were fixed in 70% ethanol for 1 h at 4 °C. The cells were washed with PBS and incubated in propidium iodide staining solution (0.1% (v/v) Triton X-100, 10 μg/ml propidium iodide (Sigma), and 100 μg/ml DNase-free RNase A in PBS) for 30 min at room temperature. Cells were analyzed using an FC500 flow cytometer (Beckman Coulter) equipped with a 488-nm laser, and data from at least 10,000 cells were acquired for each sample. Cells were gated based on forward and side scatter, and doublets excluded by height/area analysis. Cell cycle percentages were calculated by curved fit using Weasel Version 3.0 (Walter and Eliza Hall Institute of Medical Research). Data shown are representative. All data sets were combined for the statistical analysis. A Sidak's multiple comparisons test was applied. N refers to the number of biological replicates. All curves and statistical analyses were produced using Prism 7 (GraphPad Software).

NIH3T3 cells [4] = assay: Cell viability (Presto Blue assay), NIH3T3; assay type: cell-based; conditions: for cell viability: 24 h, Presto Blue, n = 3
Description: as §3

[5] = tested on: BJ6 human dermal fibroblasts; assay: Cell viability (Presto Blue assay), BJ6; assay type: cell-based; conditions: 24 h; for cell viability: n = 3
Description: as §3

HeLa cells = assay: Confocal microscopy, intracellular localization; assay type: cell-based, human; conditions: 10 μM, 24 h, confocal imaging
Description: HeLa cells were plated onto 10-mm diameter glass coverslips (1 × 10^5 cells/coverslip). Cells treated with GET-FYLIR were fixed for 10 min in 3.7% (w/v) paraformaldehyde (Sigma), stained with 1 μg/ml Hoechst 33342 (Molecular Probes) for a further 10 min, washed, and mounted. Cells were imaged using an LSM880C confocal microscope (Zeiss, Germany). A ×63 objective lens was used with a […] laser used for Hoechst 33342 and a 561-nm DPSS laser for GET-FYLIR–transduced cells. Images were captured and processed using ZEN software (Zeiss, Germany).

[6] = tested on: KNS-42, U87, HeLa, MCF7, Panc1, NIH3T3 and BJ6 cell lines; assay: Cellular delivery by GET system; assay type: cell-based; conditions: TAMRA-tagged peptide
Source text: We next evaluated the effect of the FYLIR peptide ligand on cells in culture. The novel GET system, developed for highly efficient nucleic acid, protein and peptide delivery ([35]), was used to deliver the FYLIR peptide. GET is based on the use of cell-penetrating peptides modified with heparin-binding sequences, which enhance cellular uptake by endocytosis. The synthetic peptide, GET-FYLIR, designed for these studies harbored an N-terminal TAMRA fluorescent tag, for easy visualization, fused to the GET (P21 and 8 Arg ([35])) and FYLIR sequences. […] Having established efficient delivery, the peptide's effect was investigated by assessing cell viability.

Panc1 cells [7] = assay: Cell uptake (flow cytometry), Panc1; assay type: cell-based, human; conditions: 1 h and 24 h, compared with NIH3T3, flow cytometry
Description: as §2

NIH3T3 cells [8] = assay: Cell cycle analysis (propidium iodide, flow cytometry), NIH3T3; assay type: cell-based; conditions: NIH3T3, 20 μM, 24 h, n = 5
Description: as §4

Panc1 cells [9] = assay: Cell viability (Presto Blue assay), Panc1; assay type: cell-based, human
Description: as §3

In the case of O=C1c2c(O)ccc(O)c2C(=O)c2c(NCCNCCO)ccc(NCCNCCO)c21 [mitoxantrone], the cell death (Panc1 cells [1]) is listed as “dose-dependent cell death” and the USP11 inhibition (USP11) is listed as “inhibits USP11”.

With “5TAMRA-KRKKKGKGLGKKRDPCLRKYKRRRRRRRRAEGEFYKLKIRTPR-NH2 [GET-FYLIR]” the cell uptake (NIH3T3 cells [2]; NIH3T3, 1 μM, 1 h and 24 h) was “little difference in cell uptake in either cell type”, the cell uptake (NIH3T3 cells [2]; NIH3T3, 5 μM, both incubation times) was “significantly lower than Panc1 cells” and the cell viability (U87 cells; U87, 10 μM) was “retained”. For the same molecule, the cell viability (U87 cells; U87, 20 μM) was “minimal effect”, the “subG0 fraction” value (Panc1 cells [3]; from 0.9% untreated) was 8% and the “fraction of cells in S phase” value (Panc1 cells [3]; from 36.9% untreated) was 52.8%. For the same molecule, the “fold increase of subG0 fraction” value (Panc1 cells [3]; versus untreated) was about 9 fold, the cell viability effects (NIH3T3 cells [4]; NIH3T3, 5 μM, uptake experiment, 1 and 24 h) was “cell viability effects in Panc1 but not NIH3T3 cells were observed” and the cell viability (NIH3T3 cells [4]; NIH3T3, 10 μM) was “retained”. For the same molecule, the cell viability (NIH3T3 cells [4]; NIH3T3, 20 μM) was “minimal effect”, the cell viability ([5]; BJ6, 10 μM) was “retained” and the cell viability ([5]; BJ6, 20 μM) was “minimal effect”. The “sensitivity to dose (viability)” value ([5]; BJ6, up to 50 μM) was “relatively insensitive”, the endosomal escape (HeLa cells) was “efficiently escapes endosomal vesicles” and the subcellular localization (HeLa cells) was “both the cell cytoplasm and the nucleus, with the highest accumulation in nucleoli”. For the same molecule, the cellular delivery [6] was “efficiently delivered to all cell lines tested”, the cell uptake (Panc1 cells [7]; Panc1, 1 μM) was “little difference in cell uptake in either cell type” and the cell uptake (Panc1 cells [7]; Panc1, 5 μM) was “increased uptake in Panc1 cells for both 1- and 24-h incubations”. For the same molecule, the “subG0 fraction” value (NIH3T3 cells [8]; from 0.2% untreated, not significant, p = 0.9992) was 0.8%, the “fraction of cells in S phase” value (NIH3T3 cells [8]; from 24.8% untreated, p < 0.0001) was 37.5% and the cell viability effects (Panc1 cells [9]; Panc1, 5 μM, uptake experiment, 1 and 24 h) was “cell viability effects in Panc1 but not NIH3T3 cells were observed”. For the same molecule, the loss of viability (Panc1 cells [9]; Panc1, 10 μM, 24 h, Presto Blue, n = 3 biological repeats) was about 50% and the “sensitivity to dose (viability)” value (Panc1 cells [9]; Panc1, up to 50 μM, 24 h, Presto Blue) was “particularly sensitive”.

Reference: paper PMC6333900, “Discovery of peptide ligands targeting a specific ubiquitin-like domain–binding site in the deubiquitinase USP11” (The Journal of Biological Chemistry, 2018)
